From patent publication US7138411B2, “Substituted benzopyran derivatives for the treatment of inflammation” (G.D. Searle & Co., priority 1997, dated 2006) come the findings set out here.

Structures are written as SMILES.

As usually defined, the melting point is the temperature, or range, at which the solid turns liquid.

Molecule `O=C(O)C1=Cc2cc(Cl)cc(-c3nc4ccccc4[nH]3)c2OC1C(F)(F)F` (stereo not shown) [Example 110, 8-(1H-Benzimidazol-2-yl)-6-chloro-2-(trifluoromethyl)-2H-1-benzopyran-3-carboxylic acid] had a melting point greater than 300 °C.

`CC(C)(C)c1ccc2c(c1)OC(C(F)(F)C(F)(F)F)C(C(=O)O)=C2` (stereo not shown) [Example 111, 7-(1,1-Dimethylethyl)-2-(pentafluoroethyl)-2H-1-benzopyran-3-carboxylic acid] had a melting point of 171 to 173.5 °C.

Take `O=C(O)C1=Cc2cc(Cl)cc(COCc3ccccc3)c2OC1C(F)(F)F` (stereo not shown) [Example 113, 6-Chloro-8-(benzyloxymethyl)-2-(trifluoromethyl)-2H-1-benzopyran-3-carboxylic acid]: the melting point was 133.8 to 135.4 °C.

In turn, `O=C(O)C1=Cc2cc(Cl)cc(-c3ccco3)c2OC1C(F)(F)F` (stereo not shown) [Example 117, 6-Chloro-8-(2-furanyl)-2-(trifluoromethyl)-2H-1-benzopyran-3-carboxylic acid] displayed a melting point of 171.5 to 173.3 °C.

Molecule `O=C(O)C1=Cc2cc(Cl)cc(C#CCCCCl)c2OC1C(F)(F)F` (stereo not shown) [Example 118, 6-Chloro-8-(5-chloro-1-pentynyl)-2-(trifluoromethyl)-2H-1-benzopyran-3-carboxylic acid] had a melting point of 154.4 to 156.4 °C.

`CCCC#Cc1cc(Cl)cc2c1OC(C(F)(F)F)C(C(=O)O)=C2` (stereo not shown) [Example 119, 6-Chloro-8-(1-pentynyl)-2-(trifluoromethyl)-2H-1-benzopyran-3-carboxylic acid] gave a melting point of 168.1 to 171.2 °C.

As for `CC(C)(C)C#Cc1cc(Cl)cc2c1OC(C(F)(F)F)C(C(=O)O)=C2` (stereo not shown) [Example 121, 6-Chloro-8-(3,3-dimethyl-1-butynyl)-2-(trifluoromethyl)-2H-1-benzopyran-3-carboxylic acid], the melting point lay in the range of 218.3 to 222.4 °C.

For the molecule `O=C(O)C1=Cc2cc(Cl)cc(C#Cc3ccc(Cl)cc3)c2OC1C(F)(F)F` (stereo not shown) [Example 122, 6-Chloro-8-[(4-chlorophenyl)ethynyl]-2-(trifluoromethyl)-2H-1-benzopyran-3-carboxylic acid], the melting point was 210.4 to 211.4 °C.

`COc1ccc(C#Cc2cc(Cl)cc3c2OC(C(F)(F)F)C(C(=O)O)=C3)cc1` (stereo not shown) [Example 123, 6-Chloro-8-[(4-methoxyphenyl)ethynyl]-2-(trifluoromethyl)-2H-1-benzopyran-3-carboxylic acid] had a melting point of 217.7 to 218.7 °C.

In the case of `O=C(O)C1=Cc2cc(C#Cc3ccccc3)ccc2OC1C(F)(F)F` (stereo not shown) [Example 124, 6-(Phenylethynyl)-2-(trifluoromethyl)-2H-1-benzopyran-3-carboxylic acid], the melting point lay in the range of 240.1 to 241.3 °C.

In the case of `COc1cccc(-c2cc(Cl)cc3c2OC(C(F)(F)F)C(C(=O)O)=C3)c1` (stereo not shown) [Example 126, 6-Chloro-8-(3-methoxyphenyl)-2-(trifluoromethyl)-2H-1-benzopyran-3-carboxylic acid], the melting point is 173.1 to 177.4 °C.

The molecule `CSc1ccc(-c2cc(Cl)cc3c2OC(C(F)(F)F)C(C(=O)O)=C3)cc1` (stereo not shown) [Example 127, 6-Chloro-8-[(4-methylthio)phenyl]-2-(trifluoramethyl)-2H-1-benzopyran-3-carboxylic acid] returned a melting point of 211.4 to 212.5 °C.

The molecule `CS(=O)(=O)c1ccc(-c2cc(Cl)cc3c2OC(C(F)(F)F)C(C(=O)O)=C3)cc1` (stereo not shown) [Example 128, 6-Chloro-8-[(4-methylsulfonyl)phenyl]-2-(trifluoromethyl)-2H-1-benzopyran-3-carboxylic acid] came in with a melting point of 286.5 to 287.8 °C.

On to `O=C(O)C1=Cc2cc(Br)cc(F)c2OC1C(F)(F)F` (stereo not shown) [Example 130, 6-Bromo-8-fluoro-2-(trifluoromethyl)-2H-1-benzopyran-3-carboxylic acid], for which the melting point lay within 206 to 208 °C.

As to `O=C(O)C1=Cc2cc(-c3ccc(F)cc3)ccc2OC1C(F)(F)F` (stereo not shown) [Example 131, 6-(4-Fluorophenyl)-2-(trifluoromethyl)-2H-1-benzopyran-3-carboxylic acid], the melting point was in the range of 207 to 210 °C.

Take `O=C(O)C1=Cc2cc(-c3ccccc3)ccc2OC1C(F)(F)F` (stereo not shown) [Example 132, 6-Phenyl-2-(trifluoromethyl)-2H-1-benzopyran-3-carboxylic acid]: the melting point fell in the range of 197 to 198 °C.

As for `O=C(O)C1=Cc2cc(F)cc(Cl)c2OC1C(F)(F)F` (stereo not shown) [Example 133, 8-Chloro-6-fluoro-2-(trifluoromethyl)-2H-1-benzopyran-3-carboxylic acid], the melting point was 240 to 241 °C.

`O=C(O)C1=Cc2cc(I)cc(I)c2OC1C(F)(F)F` (stereo not shown) [Example 134, 6,8-Diiodo-2-(trifluoromethyl)-2H-1-benzopyran-3-carboxylic acid] displayed a melting point of 243 to 244 °C.

For the molecule `O=C(O)C1=Cc2cc(-c3ccc(Cl)s3)ccc2OC1C(F)(F)F` (stereo not shown) [Example 135, 6-(5-Chloro-2-thienyl)-2-(trifluoramethyl)-2H-1-benzopyran-3-carboxylic acid], the melting point lay within 205 to 206 °C.

In turn, `O=C(O)C1=Cc2cc(-c3cccs3)ccc2OC1C(F)(F)F` (stereo not shown) [Example 136, 6-(2-thienyl)-2-(trifluoromethyl)-2H-1-benzopyran-3-carboxylic acid] yielded a melting point of 209 to 212 °C.

In turn, `O=C(O)C1=Cc2cc(-c3ccc(Cl)cc3)ccc2OC1C(F)(F)F` (stereo not shown) [Example 137, 6-(4-Chlorophenyl)-2-(trifluoromethyl)-2H-1-benzopyran-3-carboxylic acid] displayed a melting point of 212 to 213 °C.

`COc1ccc(-c2cc(Cl)cc3c2OC(C(F)(F)F)C(C(=O)O)=C3)cc1` (stereo not shown) [Example 141, 6-Chloro-8-(4-methoxyphenyl)-2-trifluoromethyl-2H-1-benzopyran-3-carboxylic acid]: the melting point lay in the range of 194 to 196 °C.

Take `C=CC1=C(C(=O)O)C(C(F)(F)F)Oc2ccc(Cl)cc21` (stereo not shown) [Example 142, 6-Chloro-2-(trifluoromethyl)-4-ethenyl-2H-1-benzopyran-3-carboxylic acid]: the melting point is 143 to 145 °C.

Regarding `O=C(O)C1=C(c2ccccc2)c2cc(Cl)ccc2OC1C(F)(F)F` (stereo not shown) [Example 143, 6-Chloro-2-(trifluoromethyl)-4-phenyl-2H-1-benzopyran-3-carboxylic acid], the melting point is 225.5 to 226.6 °C.

`O=C(O)C1=C(c2cccs2)c2cc(Cl)ccc2OC1C(F)(F)F` (stereo not shown) [Example 144, 6-Chloro-4-(2-thienyl)-2-(trifluoromethyl)-2H-1-benzopyran-3-carboxylic acid] had a melting point of 200.8 to 206.7 °C.

`Cc1ccc2c(c1)C=C(C(=O)O)C(C(F)(F)F)S2` (stereo not shown) [Example 145, 6-Methyl-2-(trifluoromethyl)-2H-1-benzothiopyran-3-carboxylic acid]: the melting point lay within 180.8 to 184.2 °C.

`Cc1cc(C)c2c(c1)C=C(C(=O)O)C(C(F)(F)F)S2` (stereo not shown) [Example 146, 6,8-Dimethyl-2-(trifluoromethyl)-2H-1-benzothiopyran-3-carboxylic acid]: the melting point was 220 to 225 °C (dec.).

In turn, `CC(C)(C)c1ccc2c(c1)C=C(C(=O)O)C(C(F)(F)F)S2` (stereo not shown) [Example 147, 6-(1,1-Dimethylethyl)-2-(trifluoromethyl)-2H-1-benzothiopyran-3-carboxylic acid] showed a melting point of 183.8 to 184.6 °C.

As to `Cc1ccc2c(c1)SC(C(F)(F)F)C(C(=O)O)=C2` (stereo not shown) [Example 148, 7-Methyl-2-(trifluoromethyl)-2H-1-benzothiopyran-3-carboxylic acid], the melting point lay within 186.6 to 191.9 °C.

`Cc1cc2c(cc1C)SC(C(F)(F)F)C(C(=O)O)=C2` (stereo not shown) [Example 149, 6,7-Dimethyl-2-(trifluoromethyl)-2H-1-benzothiopyran-3-carboxylic acid] registered a melting point of 235 to 237 °C.

`Cc1cccc2c1SC(C(F)(F)F)C(C(=O)O)=C2` (stereo not shown) [Example 150, 8-Methyl-2-(trifluoromethyl)-2H-1-benzothiopyran-3-carboxylic acid] came in with a melting point of 224 to 225 °C.

In the case of `O=C(O)C1=Cc2ccccc2SC1C(F)(F)F` (stereo not shown) [Example 151, 2-(Trifluoromethyl)-2H-1-benzothiopyran-3-carboxylic acid], the melting point was in the range of 187 to 190 °C.

Take `O=C(O)C1=Cc2ccc(Cl)cc2SC1C(F)(F)F` (stereo not shown) [Example 153, 7-Chloro-2-(trifluoromethyl)-2H-1-benzothiopyran-3-carboxylic acid]: the melting point fell in the range of 225.7 to 227.3 °C.

In turn, `O=C(O)C1=Cc2cc(F)c(F)cc2NC1C(F)(F)F` (stereo not shown) [Example 159, 6,7-Difluoro-1,2-dihydro-2-(trifluoromethyl)-3-quinolinecarboxylic acid] showed a melting point of 186.6 to 188.9 °C.

The molecule `O=C(O)C1=Cc2cc(OC(F)(F)F)ccc2NC1C(F)(F)F` (stereo not shown) [Example 162, 1,2-Dihydro-6-(trifluoromethoxy)-2-(trifluoromethyl)-3-quinolinecarboxylic acid] displayed a melting point of 127.7 to 128.9 °C.

Molecule `O=C(O)C1=Cc2cc(C(F)(F)F)ccc2NC1C(F)(F)F` (stereo not shown) [Example 163, 6-(Trifluoromethyl)-1,2-dihydro-2-(trifluoromethyl)-3-quinolinecarboxylic acid] gave a melting point of 150 to 156 °C.

The molecule `N#Cc1ccc2c(c1)C=C(C(=O)O)C(C(F)(F)F)N2` (stereo not shown) [Example 164, 6-Cyano-1,2-dihydro-2-(trifluoromethyl)-3-quinolinecarboxylic acid] came in with a melting point of 238 to 240 °C.

Molecule `O=C(O)C1=Cc2cc(Cl)ccc2N(Cc2ccc(C(F)(F)F)cc2)C1C(F)(F)F` (stereo not shown) [Example 166, 6-Chloro-1,2-dihydro-2-(trifluoromethyl)-1-[[4-(trifluoromethyl)phenyl]methyl]-3-quinolinecarboxylic acid] had a melting point of 229 to 231 °C.

Molecule `O=C(O)C1=Cc2cc(Cl)ccc2N(Cc2ccc(Cl)cc2)C1C(F)(F)F` (stereo not shown) [Example 167, 6-Chloro-1-[(4-Chlorophenyl)methyl]-1,2-dihydro-2-(trifluoromethyl)-3-quinolinecarboxylic acid] displayed a melting point of 250 to 253 °C.

The molecule `COc1ccc(CN2c3ccc(Cl)cc3C=C(C(=O)O)C2C(F)(F)F)cc1` (stereo not shown) [Example 168, 6-Chloro-1,2-dihydro-2-(trifluoromethyl)-1-[[4-(methoxy)phenyl]methyl]-3-quinolinecarboxylic acid] gave a melting point of 196 to 197 °C.
